The values that follow come from DBAASP.

The MIC is the least concentration at which growth counts as inhibited. Lower therefore signals inhibition by little substance.

Some test systems named below: Escherichia coli NDM; Vibrio anguillarum; Aeromonas salmonicida; Pseudomonas aeruginosa; Staphylococcus aureus; Escherichia coli TOP 10.
Holding throughout (assay): ≥ marks a high value that may be exact or a test limit, other limits are often not marked, values filed in µg/mL are converted to µM
Assay [1] concerns Escherichia coli ATCC 25922.
The subject of assay [2] is Escherichia coli ATCC 9723H.
In assay [3] the test system is Staphylococcus aureus ATCC 6538P.
For assay [4], the system named is Salmonella enterica subsp. enterica serovar Typhimurium ATCC 14028s.
Assay [5] deals with Pseudomonas aeruginosa K799.
Assay [6] concerns Staphylococcus epidermidis C621.
In assay [7] the test system is Pseudomonas aeruginosa Z61.
The subject of assay [8] is Salmonella enterica serovar typhimurium MS7953s.
In assay [9] the test system is Klebsiella pneumoniae ATCC 43816.
In assay [10] the test system is Pseudomonas aeruginosa ATCC 9027.
For assay [11], the system named is Klebsiella pneumoniae ATCC BAA-2342.
Assay [12] relates to Enterococcus faecalis NCTC 12697.
For assay [13], the system named is Staphylococcus aureus NCTC 10788.
For assay [14], the system named is Pseudomonas aeruginosa ATCC 27853.
The test system of assay [15] is Staphylococcus aureus ATCC 6538.
In assay [16] the test system is Escherichia coli NCTC 10418.
Assay [17] relates to Klebsiella pneumoniae ATCC BAA-1705.
The test system of assay [18] is Escherichia coli ATCC BAA-2340.
For assay [19], the system named is Escherichia coli ATCC 8739.
For assay [20], the system named is Candida albicans NCYC 1467.
Assay [21] deals with Staphylococcus aureus ATCC 12493.
Assay [22] concerns Mannheimia haemolytica 82-25.
The test system of assay [23] is Escherichia coli O157:H7 ATCC 43895.
For assay [24], the system named is Staphylococcus aureus ATCC 25923.
Assay [25] concerns Trichosporon beigelii KCTC 7707.
Assay [26] deals with Streptococcus mutans KCTC 3065.
The subject of assay [27] is Vibrio vulnificus ATCC 29307.
Assay [28] concerns Malassezia furfur KCTC 7744.
The subject of assay [29] is Enterococcus faecium ATCC 29212.
Assay [30] concerns Candida albicans ATCC 90028.

Molecules are shown by their SMILES. Values after ≈ are worked out from the molar mass of the structure shown.

On to `CC[C@H](C)[C@H](NC(=O)[C@@H](NC(=O)[C@@H]1CCCN1C(=O)[C@H](CC(C)C)NC(=O)[C@H](Cc1ccccc1)NC(=O)[C@H](CCCCN)NC(=O)[C@H](CC(N)=O)NC(=O)[C@H](C)NC(=O)[C@H](CC(C)C)NC(=O)[C@@H]1CCCN1C(=O)[C@H](CC(C)C)NC(=O)[C@@H](NC(=O)[C@H](CCCN=C(N)N)NC(=O)[C@@H]1CCCN1C(=O)[C@H](Cc1ccccc1)NC(=O)[C@@H](N)Cc1ccccc1)C(C)C)[C@@H](C)O)C(=O)N[C@@H](Cc1ccc(O)cc1)C(=O)N[C@@H](CS)C(=O)N[C@@H](C)C(=O)N[C@@H](CC(C)C)C(=O)N1CCC[C@H]1C(=O)N[C@@H](CCCCN)C(=O)N[C@@H](CO)C(=O)N[C@H](C(=O)NCC(=O)N[C@@H](CC(N)=O)C(=O)O)C(C)C` [FFPRVLPLANKFLPTIYCALPKSVGN], for which the MIC in [1] is 6 µM (≈ 17.4 µg/mL); in assay [2], 15.6 µM (≈ 45.2 µg/mL); against Escherichia coli NDM it was 6 µM (≈ 17.4 µg/mL); in assay [3], ≥ 88 µM.

With `CC(C)C[C@H](NC(=O)[C@H](C)NC(=O)[C@H](C)NC(=O)[C@H](CCCCN)NC(=O)CNC(=O)[C@@H](NC(=O)[C@H](Cc1cnc[nH]1)NC(=O)[C@H](CCCCN)NC(=O)CNC(=O)[C@@H](NC(=O)[C@H](Cc1cnc[nH]1)NC(=O)[C@H](C)NC(=O)[C@H](C)NC(=O)[C@H](CCCCN)NC(=O)[C@H](CCCCN)NC(=O)[C@H](Cc1ccccc1)NC(=O)[C@H](Cc1ccccc1)NC(=O)[C@H](CO)NC(=O)CNC(=O)[C@H](Cc1c[nH]c2ccccc12)NC(=O)CN)C(C)C)C(C)C)C(=O)NCC(=O)N[C@@H](C)C(=O)N[C@@H](C)C(=O)N[C@@H](C)C(=O)N[C@@H](CCCN=C(N)N)C(=O)N[C@@H](CCCN=C(N)N)C(=O)N[C@@H](CCCN=C(N)N)C(=O)N[C@@H](CCCCN)C(=O)O` [GWGSFFKKAAHVGKHVGKAALGAAARRRK], the MIC in [4] was found to be 5.22 µM (≈ 16 µg/mL); with Vibrio anguillarum it was 10.4 µM (≈ 32 µg/mL); in assay [5], 5.22 µM (≈ 16 µg/mL); in [6], 5.22 µM (≈ 16 µg/mL); in [7] it was 5.22 µM (≈ 16 µg/mL); in the assay with Aeromonas salmonicida, 0.326 µM (≈ 1 µg/mL). Besides, the minimal inhibitory concentration (MIC) in assay [8] stood at 0.163 µM (≈ 0.5 µg/mL).

As to `CC[C@H](C)[C@H](NC(=O)CNC(=O)CNC(=O)[C@H](C)NC(=O)[C@@H](NC(=O)[C@H](CCCCN)NC(=O)[C@@H]1CCCN1C(=O)[C@@H](NC(=O)[C@H](CC(C)C)NC(=O)[C@H](CO)NC(=O)[C@H](CC(C)C)NC(=O)[C@@H](N)Cc1ccccc1)[C@@H](C)CC)[C@@H](C)CC)C(=O)N[C@@H](C)C(=O)N[C@@H](C)C(=O)N[C@@H](CC(C)C)C(=O)N[C@H](C(=O)N[C@@H](CCCCN)C(=O)N[C@@H](CC(N)=O)C(=O)N[C@@H](CC(C)C)C(N)=O)C(C)C` [FLSLIPKIAGGIAALVKNL], the MIC in assay [9] is ≥ 64 µM; in assay [10], 256 µM (≈ 496 µg/mL); in assay [11] it was ≥ 128 µM; in assay [12], ≥ 32 µM; in assay [13], 4 µM (≈ 7.75 µg/mL); in assay [14], 128 µM (≈ 248 µg/mL). Besides, the MIC was 2 µM (≈ 3.87 µg/mL) in [15]; ≥ 32 µM in assay [16]; > 512 µM against Pseudomonas aeruginosa; ≥ 256 µM in assay [17]; 8 µM (≈ 15.5 µg/mL) in the assay with Staphylococcus aureus; ≥ 64 µM in assay [18]. The MIC in [19] is ≥ 128 µM; in [20], 8 µM (≈ 15.5 µg/mL); in assay [21], 4 µM (≈ 7.75 µg/mL).

With `NCCCC[C@H](NC(=O)[C@H](CC(=O)O)NC(=O)[C@H](CC(=O)O)NC(=O)[C@H](CC(=O)O)NC(=O)CN)C(=O)O` [GDDDK], in assay [22], the MIC was ≥ 200 µM.

Take `CC[C@H](C)[C@H](NC(=O)[C@@H](N)CCC(=O)O)C(=O)N[C@@H](CCC(=O)O)C(=O)N[C@@H](Cc1ccc(O)cc1)C(=O)NCC(=O)N[C@@H](CC(N)=O)C(=O)N1CCC[C@H]1C(=O)NCC(=O)N[C@H](C(=O)NCC(=O)N[C@H](C(=O)N[C@@H](CC(=O)O)C(=O)N[C@@H](CCCN=C(N)N)C(N)=O)[C@@H](C)O)C(C)C` [EIEYGNPGVGTDR]: the MIC in the assay with Escherichia coli TOP 10 was ≥ 71.1 µM.

`CC(C)C[C@H](N)C(=O)N[C@@H](CCCN=C(N)N)C(=O)N[C@@H](CCC(N)=O)C(=O)N[C@@H](CO)C(=O)N[C@@H](CCC(N)=O)C(=O)N[C@@H](Cc1ccccc1)C(=O)N[C@H](C(=O)NCC(=O)N[C@@H](CO)C(=O)N[C@@H](CCCN=C(N)N)C(N)=O)C(C)C` [LRQSQFVGSR]: the MIC in assay [23] is 10.6 µM (≈ 12.5 µg/mL); in assay [24], 42.5 µM (≈ 50 µg/mL); in assay [25], 21.3 µM (≈ 25.1 µg/mL); in assay [14] it was 21.3 µM (≈ 25.1 µg/mL); in [26], 21.3 µM (≈ 25.1 µg/mL); in assay [27] it was ≥ 42.5 µM. The MIC was ≥ 42.5 µM in assay [28], 21.3 µM (≈ 25.1 µg/mL) in assay [29] and ≥ 42.5 µM in assay [30].
